Assay results taken from ChEMBL document CHEMBL1154116, “Predictive models, based on classification algorithms, for compounds potentially active as mitochondrial ATP-sensitive potassium channel openers” (Bioorg Med Chem, 2009).
The source made the active and inactive calls. How the calls were made is not given here.

System: Heart
Assay: Cardioprotective effect in Langendorff perfused isolated rat hearts assessed as reduction in ischemic injury
Type: functional, tissue-based

Q: For `CC1(C)Oc2ccc(C#N)cc2[C@H](N(Cc2ncc[nH]2)c2ccc(Cl)cc2)[C@H]1O`, which Activity is on record?
A: Active

Q: For `CC1(C)CC2(CN(Cc3ccc(Br)cc3)CCO2)c2ccccc2O1` (stereo not given), which Activity is on record?
A: inactive

Q: For `CC1(C)CC2(OC(=O)N(Cc3ccc(NS(C)(=O)=O)cc3)C2=N)c2cc(Br)ccc2O1` (stereo not given), which Activity is on record?
A: inactive

Q: With `COc1cccc(CN2CC3(CC(C)(C)Oc4ccccc43)OCC2=O)c1` (stereo not given) as the compound, how does the Activity read?
A: inactive

Q: How did the Activity turn out when `CC(N/C(=N\C#N)Nc1ccncc1)C(C)(C)C` (stereo not given) was run?
A: Active

Q: How did the Activity turn out when `CC1(C)CC2(CN(Cc3ccccc3)C(=O)CO2)c2cc(Br)ccc2O1` (stereo not given) was run?
A: inactive

Q: Which Activity does the source give for `CC1(C)CC2(CN(Cc3ccccc3)CCO2)c2cc(Br)ccc2O1` (stereo not given) here?
A: inactive

Q: Which Activity does the source give for `CC1(C)CC2(OC(=O)N(Cc3ccccc3)C2=N)c2cc(Br)ccc2O1` (stereo not given) here?
A: inactive

Q: Which Activity does the source give for `CC(=O)Nc1ccc(CN2CCOC3(C2)CC(C)(C)Oc2ccccc23)cc1` (stereo not given) here?
A: inactive

Q: Which Activity does the source give for `CC1(C)CC2(CN(Cc3ccc(N)cc3)C(=O)CO2)c2cc(Br)ccc2O1` (stereo not given) here?
A: Active

Q: For `CC(=O)Nc1ccc(CN2CC3(CC(C)(C)Oc4ccccc43)OCC2=O)cc1` (stereo not given), which Activity is on record?
A: Active

Q: Which Activity does the source give for `COc1ccccc1CN1CC2(CC(C)(C)Oc3ccc(Br)cc32)OCC1=O` (stereo not given) here?
A: Active

Q: Which Activity does the source give for `COc1cccc(CN2CC3(CC(C)(C)Oc4ccc(Br)cc43)OCC2=O)c1` (stereo not given) here?
A: inactive

Q: For `COc1ccc(CN2CC3(CC(C)(C)Oc4ccccc43)OCC2=O)cc1` (stereo not given), which Activity is on record?
A: inactive

Q: With `CCC(C)(C)/N=C(\NC#N)Nc1cccnc1` as the compound, how does the Activity read?
A: inactive

Q: How did the Activity turn out when `CC1(C)CC2(OC(=O)N(Cc3ccc(NS(C)(=O)=O)cc3)C2=N)c2ccccc2O1` (stereo not given) was run?
A: inactive

Q: Which Activity does the source give for `Cc1ccc(CN2CCOC3(C2)CC(C)(C)Oc2ccc(Br)cc23)cc1` (stereo not given) here?
A: Active

Q: With `COc1ccc(CN2CC3(CC(C)(C)Oc4ccc(Br)cc43)OCC2=O)cc1` (stereo not given) as the compound, how does the Activity read?
A: Active

Q: How did the Activity turn out when `CC1(C)CC2(CN(Cc3ccc(C(F)(F)F)cc3)C(=O)CO2)c2ccccc2O1` (stereo not given) was run?
A: inactive

Q: `CC1(C)CC2(CN(S(=O)(=O)c3ccccc3)C(=O)CO2)c2ccccc2O1` (stereo not given) was tested. Which Activity did it give?
A: inactive

Q: For `CC1(C)CC2(CN(Cc3ccc(NS(C)(=O)=O)cc3)C(=O)CO2)c2cc(Br)ccc2O1` (stereo not given), which Activity is on record?
A: Active

Q: For `CC1(C)CC2(CN(Cc3ccc(NS(C)(=O)=O)cc3)CCO2)c2ccccc2O1` (stereo not given), which Activity is on record?
A: inactive

Q: With `COc1cccc(CN2CCOC3(C2)CC(C)(C)Oc2ccccc23)c1` (stereo not given) as the compound, how does the Activity read?
A: inactive

Q: For `CC1(C)CN(C2=CCCC2=O)c2cc([N+](=O)[O-])ccc2S1`, which Activity is on record?
A: Active

Q: How did the Activity turn out when `CC1(C)CC2(CN(Cc3ccc(Br)cc3)C(=O)CO2)c2ccccc2O1` (stereo not given) was run?
A: Active

Q: Which Activity does the source give for `CC1(C)CC2(CN(S(=O)(=O)c3ccccc3)CCO2)c2ccccc2O1` (stereo not given) here?
A: inactive

Q: `CC1(C)CC2(CN(Cc3ccc(N)cc3)C(=O)CO2)c2ccccc2O1` (stereo not given) was tested. Which Activity did it give?
A: Active

Q: How did the Activity turn out when `CC1(C)CC2(CN(Cc3ccccc3)CCO2)c2ccccc2O1` (stereo not given) was run?
A: Active

Q: Which Activity does the source give for `CC1(C)Oc2ccc(C#N)cc2[C@@H](/N=C(\NC#N)Nc2ccc(Cl)cc2)[C@@H]1O` (single isomer, unassigned) here?
A: Active

Q: How did the Activity turn out when `CC1(C)CC2(CN(Cc3ccc(N)cc3)CCO2)c2cc(Br)ccc2O1` (stereo not given) was run?
A: inactive

Q: `CC(=O)Nc1ccc(CN2C(=N)C3(CC(C)(C)Oc4ccccc43)OC2=O)cc1` (stereo not given) was tested. Which Activity did it give?
A: Active

Q: Which Activity does the source give for `Cc1ccc(CN2CC3(CC(C)(C)Oc4ccc(Br)cc43)OCC2=O)cc1` (stereo not given) here?
A: inactive

Q: For `CC1=Nc2ccc(Cl)cc2S(=O)(=O)N1`, which Activity is on record?
A: Active

Q: Which Activity does the source give for `Cc1ccc(C(=O)N2CCOC3(C2)CC(C)(C)Oc2ccccc23)cc1` (stereo not given) here?
A: inactive

Q: `CC1(C)CC2(CN(Cc3ccc(NS(C)(=O)=O)cc3)C(=O)O2)c2ccccc2O1` (stereo not given) was tested. Which Activity did it give?
A: inactive

Q: Which Activity does the source give for `CC1(C)CN(C2=CCCC2=O)c2cc(C(F)(F)F)ccc2S1` here?
A: Active

Q: Which Activity does the source give for `CC1(C)CN(C2=CCCC2=O)c2cc(C#N)ccc2S1` here?
A: Active

Q: Which Activity does the source give for `CC(=O)Nc1ccc(CN2CCOC3(C2)CC(C)(C)Oc2ccc(Br)cc23)cc1` (stereo not given) here?
A: inactive

Q: With `CC1(C)CC2(CN(Cc3ccc(NS(C)(=O)=O)cc3)C(=O)CO2)c2ccccc2O1` (stereo not given) as the compound, how does the Activity read?
A: Active

Q: For `CC1(C)CC2(CN(Cc3ccccc3)C(=O)CO2)c2ccccc2O1` (stereo not given), which Activity is on record?
A: inactive

Q: With `COc1ccc(CN2CCOC3(C2)CC(C)(C)Oc2ccccc23)cc1` (stereo not given) as the compound, how does the Activity read?
A: Active

Q: `CC1(C)CC2(CN(C(=O)c3ccccc3)C(=O)CO2)c2ccccc2O1` (stereo not given) was tested. Which Activity did it give?
A: inactive

Q: How did the Activity turn out when `COc1ccc(CN2CCOC3(C2)CC(C)(C)Oc2ccc(Br)cc23)cc1` (stereo not given) was run?
A: inactive

Q: `Cc1ccc(CN2CC3(CC(C)(C)Oc4ccccc43)OCC2=O)cc1` (stereo not given) was tested. Which Activity did it give?
A: inactive

Q: `COc1cccc(CN2CCOC3(C2)CC(C)(C)Oc2ccc(Br)cc23)c1` (stereo not given) was tested. Which Activity did it give?
A: Active

Q: `COc1ccccc1CN1CC2(CC(C)(C)Oc3ccccc32)OCC1=O` (stereo not given) was tested. Which Activity did it give?
A: Active

Q: Which Activity does the source give for `CC(=O)Nc1ccc(C(=O)N2CCOC3(C2)CC(C)(C)Oc2ccccc23)cc1` (stereo not given) here?
A: inactive

Q: With `CC1(C)CC2(CN(Cc3ccc(C(F)(F)F)cc3)CCO2)c2ccccc2O1` (stereo not given) as the compound, how does the Activity read?
A: inactive

Q: With `CC1(C)CC2(CN(Cc3ccc(N)cc3)CCO2)c2ccccc2O1` (stereo not given) as the compound, how does the Activity read?
A: Active

Q: How did the Activity turn out when `CC1(C)CC2(CN(Cc3ccc(Br)cc3)C(=O)CO2)c2cc(Br)ccc2O1` (stereo not given) was run?
A: inactive

Q: `CC1(C)Oc2ccc(C#N)cc2C(N2CCCC2=O)C1O` (stereo not given) was tested. Which Activity did it give?
A: Active

Q: `CC1(C)CC2(CN(Cc3ccc(C(F)(F)F)cc3)CCO2)c2cc(Br)ccc2O1` (stereo not given) was tested. Which Activity did it give?
A: Active

Q: With `CC1(C)CC2(CN(Cc3ccc(NS(C)(=O)=O)cc3)CCO2)c2cc(Br)ccc2O1` (stereo not given) as the compound, how does the Activity read?
A: Active

Q: How did the Activity turn out when `CC1(C)CC2(CN(Cc3ccccc3)C(=S)CO2)c2ccccc2O1` (stereo not given) was run?
A: Active

Q: Which Activity does the source give for `Cc1ccc(CN2CCOC3(C2)CC(C)(C)Oc2ccccc23)cc1` (stereo not given) here?
A: Active

Q: How did the Activity turn out when `CC1(C)CC2(CN(C(=O)c3ccccc3)CCO2)c2ccccc2O1` (stereo not given) was run?
A: inactive

Q: With `CC1(C)CC2(CN(Cc3ccccc3)C(=S)CO2)c2cc(Br)ccc2O1` (stereo not given) as the compound, how does the Activity read?
A: inactive

Q: How did the Activity turn out when `CC(=O)Nc1ccc(CN2CC3(CC(C)(C)Oc4ccc(Br)cc43)OCC2=O)cc1` (stereo not given) was run?
A: inactive

Q: For `CC(=O)Nc1ccc(CN2CC3(CC(C)(C)Oc4ccccc43)OC2=O)cc1` (stereo not given), which Activity is on record?
A: inactive

Q: `CC1(C)CC2(CN(Cc3ccc(C(F)(F)F)cc3)C(=O)CO2)c2cc(Br)ccc2O1` (stereo not given) was tested. Which Activity did it give?
A: inactive
